The species entered for series [1] is Homo sapiens. The experiment in a line: Liver toxicity in human assessed as induction of drug-induced liver injury by measuring severity class index.
The species named for series [2] is Homo sapiens. Briefly: Liver toxicity in human assessed as induction of drug-induced liver injury by measuring verified drug-induced liver injury concern status.

Structures are written as SMILES.
Throughout, for DILI severity class: key of the grades not given here.

Take `CCOc1nc2cccc(C(=O)O)c2n1Cc1ccc(-c2ccccc2-c2nnn[nH]2)cc1`: in the series listed under Homo sapiens [1], the DILI_severity_class is given as 3. Further, in the series listed under Homo sapiens [2], the DILI_Concern result is on record as “Less-Dili-Concern”.
The like results for `CCCc1nc2c(C)cc(-c3nc4ccccc4n3C)cc2n1Cc1ccc(-c2ccccc2C(=O)O)cc1` were, in that order, 3 and “Less-Dili-Concern”.
The like results for `CCCCN1C[C@H](O)[C@@H](O)[C@H](O)[C@H]1CO` were, in that order, 0 and “No-Dili-Concern”.
On the same counts, the results for `CCCCC(=O)N(Cc1ccc(-c2ccccc2-c2nnn[nH]2)cc1)[C@H](C(=O)O)C(C)C` are 3 and “Less-Dili-Concern”.
On to `CC[C@H](C)[C@H](NC(=O)[C@H](CC(=O)O)NC(=O)[C@H](CC(C)C)NC(=O)[C@H](CC(C)C)NC(=O)[C@H](CCCCN)NC(=O)[C@H](CCCN=C(N)N)NC(=O)[C@H](CC(N)=O)NC(=O)[C@H](CO)NC(=O)[C@H](Cc1cnc[nH]1)NC(=O)[C@H](C)NC(=O)[C@H](CCC(N)=O)NC(=O)[C@H](CCC(N)=O)NC(=O)[C@H](C)NC(=O)[C@H](CC(C)C)NC(=O)[C@H](CCC(N)=O)NC(=O)[C@H](CC(=O)O)NC(=O)[C@H](C)NC(=O)[C@H](CCCCN)NC(=O)[C@@H](NC(=O)[C@H](CCSC)NC(=O)[C@H](CCC(=O)O)NC(=O)[C@H](CC(C)C)NC(=O)[C@@H](NC(=O)[C@H](CCC(=O)O)NC(=O)[C@H](CCCN=C(N)N)NC(=O)[C@H](CC(C)C)NC(=O)[C@H](CC(C)C)NC(=O)[C@H](Cc1cnc[nH]1)NC(=O)[C@H](Cc1ccccc1)NC(=O)[C@@H](NC(=O)[C@H](CC(C)C)NC(=O)[C@H](CC(=O)O)NC(=O)[C@H](CC(C)C)NC(=O)[C@H](CO)NC(=O)[C@@H](NC(=O)[C@@H]1CCCN1C(=O)[C@@H]1CCCN1C(=O)[C@H](CCC(=O)O)NC(=O)[C@H](CCC(N)=O)NC(=O)[C@@H](N)CO)[C@@H](C)CC)[C@@H](C)O)C(C)C)[C@@H](C)O)C(=O)N[C@@H](C)C(N)=O`, for which the DILI_severity_class in the series listed under Homo sapiens [1] is reported as 0. The DILI_Concern result in the series filed under Homo sapiens [2] is recorded as “No-Dili-Concern”.
The like results for `CC(C)(C)NC(=O)[C@@H]1C[C@@H]2CCCC[C@@H]2CN1C[C@@H](O)[C@H](Cc1ccccc1)NC(=O)[C@H](CC(N)=O)NC(=O)c1ccc2ccccc2n1` were, in that order, 3 and “Less-Dili-Concern”.
The like results for `CCOC(=O)[C@H](CCc1ccccc1)N[C@@H](C)C(=O)N1[C@H](C(=O)O)C[C@@H]2CCC[C@@H]21` were, in that order, 7 and “Less-Dili-Concern”.
On the same counts, the results for `Cl.NCCNCCNCCN` are 1 and “No-Dili-Concern”.
Regarding `O=C(O)[C@@H](S)[C@@H](S)C(=O)O`, the DILI_severity_class in the series filed under Homo sapiens [1] is given as 2. The DILI_Concern entry in the series filed under Homo sapiens [2] is “Less-Dili-Concern”.
On the same counts, the results for `C[C@@H](NCCCc1cccc(C(F)(F)F)c1)c1cccc2ccccc12` are 0 and “No-Dili-Concern”.
The like results for `CC[C@@H](C(N)=O)N1CCCC1=O` were, in that order, 8 and “Less-Dili-Concern”.
Turning to `CC(C)CN(C[C@@H](O)[C@H](Cc1ccccc1)NC(=O)O[C@H]1CO[C@H]2OCC[C@H]21)S(=O)(=O)c1ccc(N)cc1`, in the series filed under Homo sapiens [1], the DILI_severity_class is 8. The DILI_Concern result in the series listed under Homo sapiens [2] is reported as “Most-Dili-Concern”.
For the compound `COc1ccc(CC2c3cc(OC)c(OC)cc3CC[N+]2(C)CCC(=O)OCCCCCOC(=O)CC[N+]2(C)CCc3cc(OC)c(OC)cc3C2Cc2ccc(OC)c(OC)c2)cc1OC` (centres undefined), the DILI_severity_class in the series filed under Homo sapiens [1] was found to be 0. Besides, in the series filed under Homo sapiens [2], the DILI_Concern entry is reported as “No-Dili-Concern”.
For `CC1=C(CC(=O)O)c2cc(F)ccc2/C1=C\c1ccc([S+](C)[O-])cc1` (centres undefined), the DILI_severity_class in the series filed under Homo sapiens [1] is reported as 8. Moreover, the DILI_Concern entry in the series listed under Homo sapiens [2] is given as “Most-Dili-Concern”.
Take `CCOC(=O)[C@H](CCc1ccccc1)N[C@@H](C)C(=O)N1Cc2ccccc2C[C@H]1C(=O)O`: the DILI_severity_class in the series listed under Homo sapiens [1] came to 3. Besides, the DILI_Concern result in the series filed under Homo sapiens [2] is “Less-Dili-Concern”.
The like results for `COCCCOc1cc(C[C@@H](C[C@H](N)[C@@H](O)C[C@H](C(=O)NCC(C)(C)C(N)=O)C(C)C)C(C)C)ccc1OC` were, in that order, 0 and “Less-Dili-Concern”.
For `O=C(O)c1ccccc1-c1c2ccc(=O)cc-2oc2cc(O)ccc12`, the DILI_severity_class in the series filed under Homo sapiens [1] was found to be 0. Further, the DILI_Concern entry in the series listed under Homo sapiens [2] was “No-Dili-Concern”.
With `CO/N=C(\C(=O)N[C@@H]1C(=O)N2C(C(=O)[O-])=C(C[N+]3(C)CCCC3)CS[C@H]12)c1csc(N)n1`, in the series listed under Homo sapiens [1], the DILI_severity_class worked out at 3. For the same compound, in the series listed under Homo sapiens [2], the DILI_Concern result is listed as “Less-Dili-Concern”.
Turning to `CCCc1nn(C)c2c(=O)[nH]c(-c3cc(S(=O)(=O)N4CCN(C)CC4)ccc3OCC)nc12`, in the series listed under Homo sapiens [1], the DILI_severity_class is reported as 3. The DILI_Concern result in the series listed under Homo sapiens [2] is “Less-Dili-Concern”.
In the case of `CCC[C@@]1(CCc2ccccc2)CC(O)=C([C@H](CC)c2cccc(NS(=O)(=O)c3ccc(C(F)(F)F)cn3)c2)C(=O)O1`, in the series filed under Homo sapiens [1], the DILI_severity_class came to 8. Further, the DILI_Concern entry in the series filed under Homo sapiens [2] is given as “Most-Dili-Concern”.
On the same counts, the results for `O=S(=O)(OC[C@H]1O[C@@H](O[C@]2(COS(=O)(=O)[O][Al]([OH])[OH])O[C@H](OS(=O)(=O)[O][Al]([OH])[OH])[C@@H](OS(=O)(=O)[O][Al]([OH])[OH])[C@@H]2OS(=O)(=O)[O][Al]([OH])[OH])[C@H](OS(=O)(=O)[O][Al]([OH])[OH])[C@@H](OS(=O)(=O)[O][Al]([OH])[OH])[C@@H]1OS(=O)(=O)[O][Al]([OH])[OH])[O][Al]([OH])[OH].[OH][Al]([OH])[OH].[OH][Al]([OH])[OH].[OH][Al]([OH])[OH].[OH][Al]([OH])[OH].[OH][Al]([OH])[OH].[OH][Al]([OH])[OH].[OH][Al]([OH])[OH].[OH][Al]([OH])[OH]` are 0 and “No-Dili-Concern”.
As to `Cc1nnc(C(=O)NC(C)(C)c2nc(C(=O)NCc3ccc(F)cc3)c(O)c(=O)n2C)o1`, the DILI_severity_class in the series filed under Homo sapiens [1] stood at 7. In addition, the DILI_Concern entry in the series filed under Homo sapiens [2] is “Most-Dili-Concern”.
Consider `CCN(CC)C(=O)C1(c2ccccc2)CC1CN` (centres undefined), for which the DILI_severity_class in the series filed under Homo sapiens [1] is 7. The DILI_Concern result in the series filed under Homo sapiens [2] is “Most-Dili-Concern”.
Consider `O=C(O)COc1ccc(C(=O)c2cccs2)c(Cl)c1Cl`, for which, in the series filed under Homo sapiens [1], the DILI_severity_class came out at 8. For the same compound, the DILI_Concern entry in the series filed under Homo sapiens [2] is listed as “Most-Dili-Concern”.
On the same counts, the results for `O=S([O-])([O-])=S.[Na+].[Na+]` are 0 and “No-Dili-Concern”.
`C/C=C1\NC(=O)[C@@H]2CSSCC/C=C/[C@@H](CC(=O)N[C@H](C(C)C)C(=O)N2)OC(=O)[C@H](C(C)C)NC1=O`: in the series filed under Homo sapiens [1], the DILI_severity_class amounted to 0. In addition, the DILI_Concern result in the series filed under Homo sapiens [2] is “No-Dili-Concern”.
With `CC(C)C[C@H](NC(=O)[C@H](Cc1c[nH]c2ccccc12)NC(=O)[C@H](Cc1ccc(O)cc1)NC(=O)[C@H](CO)NC(=O)[C@H](Cc1c[nH]c2ccccc12)NC(=O)[C@H](Cc1c[nH]cn1)NC(=O)[C@@H]1CCC(=O)N1)C(=O)N[C@@H](CCCNC(=N)N)C(=O)N1CCC[C@H]1C(=O)NCC(N)=O.O=C(O)c1cc2ccccc2c(Cc2c(O)c(C(=O)O)cc3ccccc23)c1O`, the DILI_severity_class in the series listed under Homo sapiens [1] is 3. In addition, the DILI_Concern entry in the series listed under Homo sapiens [2] is reported as “Less-Dili-Concern”.
On the same counts, the results for `CC(=O)N[C@@H]1[C@@H](O[C@@H]2O[C@@H](C(=O)O)[C@@H](O)[C@H](O)[C@H]2O)[C@@H](OS(=O)(=O)O)[C@@H](CO)O[C@H]1O` are 8 and “Most-Dili-Concern”.
As to `CCC(C)CCCCC(=O)N[C@@H](CCNCS(=O)(=O)O)C(=O)N[C@H](C(=O)N[C@@H](CCNCS(=O)(=O)O)C(=O)N[C@H]1CCNC(=O)[C@H]([C@@H](C)O)NC(=O)[C@H](CCNCS(=O)(=O)O)NC(=O)[C@H](CCNCS(=O)(=O)O)NC(=O)[C@H](CC(C)C)NC(=O)[C@@H](CC(C)C)NC(=O)[C@H](CCNCS(=O)(=O)O)NC1=O)[C@@H](C)O` (some centres undefined), the DILI_severity_class in the series listed under Homo sapiens [1] is recorded as 0. The DILI_Concern result in the series filed under Homo sapiens [2] is “No-Dili-Concern”.
With `COc1ccc2[n-]c([S@+]([O-])Cc3ncc(C)c(OC)c3C)nc2c1.[Na+]`, the DILI_severity_class in the series filed under Homo sapiens [1] was 4. Also, the DILI_Concern entry in the series filed under Homo sapiens [2] is listed as “Less-Dili-Concern”.
For `O=C(O)c1cc(=O)c2cc(OCC(O)COc3cccc4oc(C(=O)O)cc(=O)c34)ccc2o1` (centres undefined), the DILI_severity_class in the series filed under Homo sapiens [1] was found to be 3.
For the compound `NCC1O[C@H](O[C@H]2[C@@H](O)[C@H](O[C@H]3[C@H](O)[C@@H](N)C[C@@H](N)[C@@H]3O[C@H]3O[C@H](CN)[C@@H](O)[C@H](O)[C@H]3N)O[C@@H]2CO)[C@H](N)[C@@H](O)[C@@H]1O` (some centres undefined), in the series listed under Homo sapiens [1], the DILI_severity_class was 0. Further, in the series filed under Homo sapiens [2], the DILI_Concern result is “No-Dili-Concern”.
As to `CCO[C@@H]1OC(=O)C[C@@H]1NC(=O)[C@@H]1CCCN2C(=O)CC[C@H](NC(=O)c3nccc4ccccc34)C(=O)N12`, the DILI_severity_class in the series filed under Homo sapiens [1] stood at 8. Also, in the series listed under Homo sapiens [2], the DILI_Concern result was “Most-Dili-Concern”.
As for `CCOC(=O)[C@H](CCc1ccccc1)N[C@@H](C)C(=O)N1CCC[C@H]1C(=O)O`, the DILI_severity_class in the series listed under Homo sapiens [1] worked out at 7. For the same compound, the DILI_Concern entry in the series filed under Homo sapiens [2] is “Less-Dili-Concern”.
Consider `Cc1c(O)cccc1C(=O)N[C@@H](CSc1ccccc1)[C@H](O)CN1C[C@H]2CCCC[C@H]2C[C@H]1C(=O)NC(C)(C)C`, for which the DILI_severity_class in the series filed under Homo sapiens [1] was 3. Besides, the DILI_Concern result in the series filed under Homo sapiens [2] was “Less-Dili-Concern”.
The like results for `Nc1nc(N)c2nc(-c3ccccc3)c(N)nc2n1` were, in that order, 5 and “Less-Dili-Concern”.
On to `COc1ccc(CCN(C)CCCC(C#N)(c2ccc(OC)c(OC)c2)C(C)C)cc1OC` (centres undefined), for which the DILI_Concern result in the series listed under Homo sapiens [2] is recorded as “Less-Dili-Concern”.
For the compound `N[C@@H](Cc1ccc(N(CCCl)CCCl)cc1)C(=O)O`, in the series listed under Homo sapiens [1], the DILI_severity_class is listed as 5. Besides, in the series listed under Homo sapiens [2], the DILI_Concern entry is “Less-Dili-Concern”.
Regarding `C=CC1=C(C(=O)O)N2C(=O)[C@@H](NC(=O)/C(=N\O)c3csc(N)n3)[C@H]2SC1`, the DILI_severity_class in the series listed under Homo sapiens [1] stood at 7. In addition, in the series filed under Homo sapiens [2], the DILI_Concern result is listed as “Less-Dili-Concern”.
Take `CC(=O)Nc1ccc(O)cc1` [ACETAMINOPHEN]: in the series filed under Homo sapiens [2], the DILI_Concern result is on record as “Most-Dili-Concern”.
Same read-out and setting: next, `CN(C)CCCN1c2ccccc2CCc2ccccc21` [IMIPRAMINE]: “Less-Dili-Concern”.
The same measure, in the same setting: next, `Clc1ccccc1CN1CCc2sccc2C1` [TICLOPIDINE]: “Most-Dili-Concern”.

The record behind these values is ChEMBL document CHEMBL4028802, “DILIrank: the largest reference drug list ranked by the risk for developing drug-induced liver injury in humans” (Drug Discov Today, 2016).
